Converted amounts (≈) assume the structure as drawn. Counter-ions that a name gives are not always drawn. Where a SMILES comes first, the peptide text is derived from it. [ ]: non-standard residue; d: D form. The star is where a group is joined. pNA = O=[N+]([O-])c1ccc(N*)cc1; Pip = O=C(O)[C@@H]1CCCCN1; Bz = O=C(c1ccccc1)*
Experiments:
[1] = system: Kallikrein; experiment: Relative reaction rate of enzymatic hydrolysis of chromogenic substrates, kallikrein (p-nitroaniline release at 405 nm); assay type: biochemical; settings: for Rel Reaction rates, Kal (Kallikrein): relative to reference substrate XVI
Excerpt: (§1) The substrates prepared according to the examples above are used for determination of different enzymes according to the procedure outlined above.
(§2) The principle for the determination is based on the fact that the splitting product formed by enzymatic hydrolysis has a UV-spectrum which is essentially different from that of the substrate. Thus, e.g. all p-nitro anilide substrates according to the invention have absorption maxima around 310 nm with the molar extinction coefficient of about 12000. At 405 nm the absorption of these substrates has almost completely discontinued. p-Nitroaniline which has been split off from the substrate during the enzymatic hydrolysis has an absorption maximum at 380 nm and a molar extinction coefficient of 13200, which at 405 nm only has decreased to 9620. By spectrophotometric determination at 405 nm it is thus easy to follow the amount of p-nitroaniline formed which is proportional to the degree of the enzymatic hydrolysis which in its turn is determined by the active amount of enzyme.
(§3) In the table above the relative reaction rates for the different substrates are stated in relation to a reference substrate chosen for each enzyme. Symbols, reference substrates and their sensitivity for the respective enzymes are according to the following: […]

[2] = target: Plasmin (Homo sapiens, UniProt P00747); experiment: Relative reaction rate of enzymatic hydrolysis of chromogenic substrates, plasmin (p-nitroaniline release at 405 nm); assay type: biochemical; settings: for Rel Reaction rates, Pl (Plasmin): relative to reference substrate XVIII
Excerpt: as §1, §2, §3

[3] = Solubility in buffer; assay type: physicochemical; settings: aqueous buffer; Buffer = Tris, pH 8.2, I 0.15
Excerpt: | ^x Buffer = Tris, pH 8.2, I 0.15

[4] = system: Thrombin; experiment: Relative reaction rate of enzymatic hydrolysis of chromogenic substrates, thrombin (p-nitroaniline release at 405 nm); assay type: biochemical; settings: for Rel Reaction rates, T (Thrombin): relative to reference substrate XIV
Excerpt: as §1, §2, §3

[5] = system: Trypsin; experiment: Relative reaction rate of enzymatic hydrolysis of chromogenic substrates, trypsin (p-nitroaniline release at 405 nm); assay type: biochemical; settings: for Rel Reaction rates, Try (Trypsin): relative to reference substrate XIII
Excerpt: as §1, §2, §3

[6] = target: Urokinase (Homo sapiens, UniProt P00749); experiment: Relative reaction rate of enzymatic hydrolysis of chromogenic substrates, urokinase (p-nitroaniline release at 405 nm); assay type: biochemical; settings: for Rel Reaction rates, UK (Urokinase): relative to reference substrate XIV
Excerpt: as §1, §2, §3

Plasmin, sequence (P00747 97-810): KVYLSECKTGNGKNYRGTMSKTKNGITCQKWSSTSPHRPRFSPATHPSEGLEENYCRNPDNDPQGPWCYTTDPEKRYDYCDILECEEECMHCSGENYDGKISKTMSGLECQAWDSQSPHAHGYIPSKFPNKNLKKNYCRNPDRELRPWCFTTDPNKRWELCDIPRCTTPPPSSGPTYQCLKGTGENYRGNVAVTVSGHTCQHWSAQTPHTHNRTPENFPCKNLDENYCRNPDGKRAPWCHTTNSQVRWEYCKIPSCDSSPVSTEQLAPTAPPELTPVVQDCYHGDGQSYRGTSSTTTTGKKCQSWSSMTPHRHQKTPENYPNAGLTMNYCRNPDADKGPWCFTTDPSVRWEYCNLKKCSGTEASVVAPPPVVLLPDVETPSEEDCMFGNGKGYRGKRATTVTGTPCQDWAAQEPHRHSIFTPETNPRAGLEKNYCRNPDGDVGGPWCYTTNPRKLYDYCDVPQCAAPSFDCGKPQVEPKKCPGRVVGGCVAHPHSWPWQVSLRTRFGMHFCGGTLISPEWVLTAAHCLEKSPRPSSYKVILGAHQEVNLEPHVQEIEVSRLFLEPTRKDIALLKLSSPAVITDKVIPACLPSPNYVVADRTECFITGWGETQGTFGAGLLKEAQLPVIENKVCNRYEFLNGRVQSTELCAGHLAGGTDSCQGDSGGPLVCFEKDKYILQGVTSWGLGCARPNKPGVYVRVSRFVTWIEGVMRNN

| Compound | Rel Reaction rates, Kal (Kallikrein) [1] | Rel Reaction rates, Pl (Plasmin) [2] | solubility [3] | Rel Reaction rates, T (Thrombin) [4] | Rel Reaction rates, Try (Trypsin) [5] | Rel Reaction rates, UK (Urokinase) [6] | further results |
| --- | --- | --- | --- | --- | --- | --- | --- |
| CC[C@H](C)[C@H](NC(=O)c1ccccc1)C(=O)N[C@@H](CC(C)C)C(=O)N[C@@H](CCCNC(=N)N)C(=O)Nc1ccc([N+](=O)[O-])cc1 [Bz-Ile-Leu-Arg-pNA] (Bz-Ile-Leu-Arg-pNA) | 100 | 55 | 200 µg/mL (≈ 320 µM) |  |  |  |  |
| CC[C@H](C)[C@H](NC(=O)c1ccccc1)C(=O)N[C@@H](CC(C)C)C(=O)N[C@@H](CCCCN)C(=O)Nc1ccc([N+](=O)[O-])cc1 [Bz-Ile-Leu-Lys-pNA] (Bz-Ile-Leu-Lys-pNA) |  | 130 | 1000 µg/mL (≈ 1680 µM) |  |  |  |  |
| CC(C)C[C@H](NC(=O)[C@@H](NC(=O)c1ccccc1)C(C)C)C(=O)N[C@@H](CCCNC(=N)N)C(=O)Nc1ccc([N+](=O)[O-])cc1 [Bz-Val-Leu-Arg-pNA] (Bz-Val-Leu-Arg-pNA) | 100 |  | 200 µg/mL (≈ 327 µM) |  |  |  |  |
| CC(C)C[C@H](NC(=O)[C@@H](NC(=O)c1ccccc1)C(C)C)C(=O)N[C@@H](CCCCN)C(=O)Nc1ccc([N+](=O)[O-])cc1 [Bz-Val-Leu-Lys-pNA] (Bz-Val-Leu-Lys-pNA) |  | 100 | 500 µg/mL (≈ 858 µM) |  |  |  |  |
| CC(C)[C@H](NC(=O)c1ccccc1)C(=O)N1CCCC[C@H]1C(=O)N[C@@H](CCCNC(=N)N)C(=O)Nc1ccc([N+](=O)[O-])cc1 [Bz-Val-Pip-Arg-pNA] (Bz-Val-[Pip]-Arg-pNA) |  |  |  | 4 | 45 | 30 |  |
| CC(C)[C@H](NC(=O)c1ccccc1)C(=O)N1CCC[C@H]1C(=O)N[C@@H](CCCNC(=N)N)C(=O)Nc1ccc([N+](=O)[O-])cc1 [Bz-Val-Pro-Arg-pNA] (Bz-Val-Pro-Arg-pNA) |  |  | 300 µg/mL (≈ 504 µM) | 6 | 60 | 15 |  |
| CC[C@H](C)[C@H](N)C(=O)N[C@@H](CC(C)C)C(=O)N[C@@H](CCCNC(=N)N)C(=O)Nc1ccc([N+](=O)[O-])cc1 [H-Ile-Leu-Arg-pNA] (H-Ile-Leu-Arg-pNA) | 20 | 10 |  |  |  |  |  |
| CC[C@H](C)[C@H](N)C(=O)N[C@@H](CC(C)C)C(=O)N[C@@H](CCCCN)C(=O)Nc1ccc([N+](=O)[O-])cc1 [H-Ile-Leu-Lys-pNA] (H-Ile-Leu-Lys-pNA) |  | 35 |  |  |  |  |  |
| CC(C)C[C@H](NC(=O)[C@@H](N)C(C)C)C(=O)N[C@@H](CCCNC(=N)N)C(=O)Nc1ccc([N+](=O)[O-])cc1 [H-Val-Leu-Arg-pNA] (H-Val-Leu-Arg-pNA) | 50 |  |  |  |  |  |  |
| CC(C)C[C@H](NC(=O)[C@@H](N)C(C)C)C(=O)N[C@@H](CCCCN)C(=O)Nc1ccc([N+](=O)[O-])cc1 [H-Val-Leu-Lys-pNA] (H-Val-Leu-Lys-pNA) |  | 25 |  |  |  |  |  |
| CC(C)[C@H](N)C(=O)N1CCCC[C@H]1C(=O)N[C@@H](CCCNC(=N)N)C(=O)Nc1ccc([N+](=O)[O-])cc1 [H-Val-Pip-Arg-pNA] (H-Val-[Pip]-Arg-pNA) |  |  |  | 4 | 35 | 45 |  |
| CC(C)[C@H](N)C(=O)N1CCC[C@H]1C(=O)N[C@@H](CCCNC(=N)N)C(=O)Nc1ccc([N+](=O)[O-])cc1 [H-Val-Pro-Arg-pNA] (H-Val-Pro-Arg-pNA) |  |  | 40000 µg/mL (≈ 81500 µM) | 6 | 55 | 15 |  |
| CC(C)[C@@H](N)C(=O)N1CCC[C@H]1C(=O)N[C@@H](CCCNC(=N)N)C(=O)Nc1ccc([N+](=O)[O-])cc1 [XIII, H-D-Val-Pro-Arg-pNA . 2 HCl] (H-[dV]-Pro-Arg-pNA) |  |  | 100000 µg/mL | 80 | 100 | 95 | Sensitivity (stated amount of enzyme gives the activity 0.1 nkat) ([5]; Trypsin, 0.1 nkat, ΔOD/min = 0.0254): 0.03 µg (Novo) |
| CC(C)[C@@H](N)C(=O)N1CCCC[C@H]1C(=O)N[C@@H](CCCNC(=N)N)C(=O)Nc1ccc([N+](=O)[O-])cc1 [XIV, H-D-Val-Pip-Arg-pNA . 2 HCl] (H-[dV]-[Pip]-Arg-pNA) |  |  |  | 100 | 70 | 100 | Sensitivity (stated amount of enzyme gives the activity 0.1 nkat) ([4]; Thrombin, 0.1 nkat, ΔOD/min = 0.0254): 0.06 INH; Sensitivity (stated amount of enzyme gives the activity 0.1 nkat) ([6]; Urokinase, 0.1 nkat, ΔOD/min = 0.0254): 40 Ploug E |
| CC[C@@H](C)[C@@H](N)C(=O)N[C@@H](CC(C)C)C(=O)N[C@@H](CCCNC(=N)N)C(=O)Nc1ccc([N+](=O)[O-])cc1 [XV, H-D-Ile-Leu-Arg-pNA . 2 HCl] (H-[dI]-Leu-Arg-pNA) | 100 | 75 | 4000 µg/mL |  |  |  |  |
| CC(C)C[C@H](NC(=O)[C@H](N)C(C)C)C(=O)N[C@@H](CCCNC(=N)N)C(=O)Nc1ccc([N+](=O)[O-])cc1 [XVI, H-D-Val-Leu-ARg-pNA . 2 HCl] (H-[dV]-Leu-Arg-pNA) | 100 |  | 600000 µg/mL |  |  |  | Sensitivity (stated amount of enzyme gives the activity 0.1 nkat) ([1]; Kallikrein, 0.1 nkat, ΔOD/min = 0.0254): 0.2 Be |
| CC[C@@H](C)[C@@H](N)C(=O)N[C@@H](CC(C)C)C(=O)N[C@@H](CCCCN)C(=O)Nc1ccc([N+](=O)[O-])cc1 [XVII, H-D-Ile-Leu-Lys-pNA . 2 HCl] (H-[dI]-Leu-Lys-pNA) |  | 100 | 20000 µg/mL |  |  |  |  |
| CC(C)C[C@H](NC(=O)[C@H](N)C(C)C)C(=O)N[C@@H](CCCCN)C(=O)Nc1ccc([N+](=O)[O-])cc1 [XVIII, H-D-Val-Leu-Lys-pNA . 2 HCl] (H-[dV]-Leu-Lys-pNA) |  | 100 | > 100000 µg/mL |  |  |  | Sensitivity (stated amount of enzyme gives the activity 0.1 nkat) ([2]; Plasmin, 0.1 nkat, ΔOD/min = 0.0254): 0.01 CU |

Source: US4137225A, “Novel chromogenic enzyme substrates” (Ab Kabi, priority 1975, dated 1979)
